Experimental data from paper PMC5444710, “Enhancement of radiosensitivity by the novel anticancer quinolone derivative vosaroxin in preclinical glioblastoma models” (Oncotarget, 2017).

Legend:
beclin-1 = assay: Beclin-1 expression (Western blot and ELISA); assay type: cell-based, human; details: after vosaroxin treatment at IC20; U87MG, U251, T98G
Method: Cells grown in 90 mm diameter Petri dishes were treated and at various timepoints were washed with cold phosphate-buffered saline (PBS) and immediately lysed with 1 mL radioimmunoprecipitation assay (RIPA) buffer containing protease and phosphatase inhibitor cocktail. Total lysates were electrophoresed in SDS-PAGE (7%), and separated proteins transferred to nitrocellulose and probed with the appropriate antibodies using the conditions recommended by the suppliers. Protein levels in total extracts were normalized to actin. After appropriate treatments, tumor cell cultures and tissues were harvested for analysis of cytokine expression. Cell pellets were washed with PBS and lysed with RIPA buffer. Cell lysates and conditioned media were assayed by ELISA to measure (i) active human caspase-3 (CBA045, Merck Chemicals Ltd., Nottingham, UK), (ii) beclin-1 (E98557Hu, USCN Life Sciences, Houston, TX, USA), and (iii) DNA damage (EpiQuik in situ DNA Damage Assay Kit, Epigentek, Farmingdale, NY, USA).

GBM cell lines = assay: Clonogenic survival assays (abstract statement); assay type: cell-based; details: Homo sapiens
Method: For clonogenic survival assays, exponentially growing cells (70% confluence) were cultured in regular media and treated with vosaroxin, at the appropriate concentrations, or vehicle (final dimethyl sulfoxide concentration of 0.1%) for 48 hours. Tumor cells were then irradiated at room temperature with increasing doses of radiation (0–6 Gy) using an x-ray linear accelerator (dose rate of 200 cGy/min). Nonirradiated controls were handled identically to the irradiated cells with the exception of the radiation exposure. […] Colonies containing more than 50 cells were counted. The plating efficiency was calculated as the number of colonies observed divided by the number of cells plated. The surviving fraction was calculated as the number of colonies formed in the treated dishes compared with the number formed in the control. The survival curves were analyzed using SPSS statistical software (Chicago, IL, USA) by means of a fit of the data by a weighted, stratified, linear regression, according to the linear-quadratic formula: S(D)/S(O) = exp-(αD + βD2). The cell survival enhancement ratio was calculated as the ratio of the mean inactivation dose under control conditions divided by the mean inactivation dose after treatment as previously described.

[1] = system: 13 human glioma cell lines and three patient-derived glioblastoma stem cell lines; assay: Cell viability / growth inhibition, whole panel; assay type: cell-based
Method: Cells were seeded at a density of 2 × 10^4 cells/mL in 24-well plates. Cells were […] to attach and grow in 5% fetal bovine serum in DMEM for 24 hours. Cells were treated with different doses of radiation or temozolomide and then maintained in the appropriate culture conditions. At the conclusion of the treatment period, cells were trypsinized and resuspended in 1.0 mL of saline; viable cells were counted using the NucleoCounter^TM NC-100 (Chemotec, […], Denmark). All experiments were conducted in triplicate. IC50 values were calculated using GraFit (Erithacus Software Limited, Staines, UK).

[2] = system: P-glycoprotein drug pumps; set-up: method as in PMID 23688047; details: cited from earlier work
[3] = system: U87MG, U251, and T98G xenografts; assay: iNOS and arginase-1 expression in xenograft tissue extracts; assay type: in vivo, female CD1-nu/nu mice; details: tissue extracts from U87MG
Method: After appropriate treatments, tumor cell cultures and tissues were harvested for analysis of cytokine expression. Cell pellets were washed with PBS and lysed with RIPA buffer. Cell lysates and conditioned media were assayed by ELISA to measure (i) active human caspase-3 (CBA045, Merck Chemicals Ltd., Nottingham, UK), (ii) beclin-1 (E98557Hu, USCN Life Sciences, Houston, TX, USA), and (iii) DNA damage (EpiQuik in situ DNA Damage Assay Kit, Epigentek, Farmingdale, NY, USA). Tumor extracts were analyzed for the presence of:
• MMP-2 (KHC3081) • TNF-α (KHC3011, Life Technologies Italia, Monza, Italy) • CXCR4 (Cyto Glow CXCR4 [pSer339], cell-based ELISA, Assay Biotech, Sunnyvale, CA, USA) • Human Fas ligand (ELH-FASL, RayBiotech, Norcross, GA, USA) • IL-6 (orb50052) and survivin (orb50135) (Biorbyt) • TGF-β1 (Quantikine ELISA Kit, DB100B, R&D Systems, Minneapolis, MN, USA) • SDF-1α (Human CXCL12/SDF-1α Quantikine ELISA Kit, DSA00, R&D Systems) • Mouse IL-10 DuoSet ELISA DY417 (R&D Systems Minneapolis, MN, USA) • Mouse NOS2 / iNOS ELISA Kit (Sandwich ELISA) - LS-F12166 (LifeSpan Biosciences, Inc, Seattle, WA, USA) • Mouse ARG1 / Arginase-1 ELISA Kit (Sandwich ELISA) - LS-F10883 (LifeSpan Biosciences, Inc, Seattle, WA, USA)

## CN[C@H]1CN(c2ccc3c(=O)c(C(=O)O)cn(-c4nccs4)c3n2)C[C@@H]1OC [vosaroxin]
beclin-1
  RT-induced levels of beclin-1: significantly reduced
GBM cell lines
  IC50: 10 to 100 nM
[1]; Glioma cell, glioma cells used in clonogenic studies, read-out: IC20 values in growth inhibition assays, range
  IC20: 10 to 100 nM
[1]; read-out: IC50 values, range over all cell lines tested
  IC50: 12.8 to 260 nM
[2]
  substrate for P-glycoprotein drug pumps: not a substrate
[3]
  arginase-1 expression (M2 marker): low expression
  iNOS expression (M1 marker): high expression
